Measurements taken from patent US6713504B2, “Antifungal molecule 2-(3,4-dimethyl-2,5-dihydro-1H-pyrrol-2-yl)-1-methylethyl pentanoate” (Council of Scientific & Industrial Research, priority 2002, dated 2004).
≈ marks a conversion by molar mass, not a printed value.

Key:
Assay type in all cases: cell-based
[1] = system: A. flavus; experiment: Disc diffusion assay; conditions: concentration developing zone of inhibition of 6.0-mm diameter
Method: (§1) Pathogenic strains of fungi were obtained from the Mycology Department of Vallabhbhai Patel Chest Institute, Delhi. All the strains were grown on Sabouraud dextrose agar at 37° C. The conidia form these cultures were harvested and suspended in Sabouraud maltose broth. The number of conidia was counted using haemocytometer and their number in the suspension was adjusted to as per need of the experiment.
(§2) The disc diffusion test was performed as per described in the section of details of invention. Amphotericin B 1.25 μg/disc was used in assay as positive control standard drug. Additional discs impregnated with equivalent amount of solvent were also used in the assay as negative controls (FIG. 5).

[2] = system: A. niger; experiment: Disc diffusion assay
Method: as §1, §2

[3] = system: A. flavus; experiment: Microbroth dilution assay; design: key to Activity of the compound against Aspergillus sp. after 48 hrs.: +ve if medium appeared clear with out any growth of fungi; −ve if growth was there
Method: as §1
(§3) The antifungal susceptibility of the fungi to various fractions or the purified component was assayed by the microbroth dilution method (Forthergill A. W. and McGough A. W., 1995, Clin. Microbiol. Procedure Handbook. In Vitro susceptibility Testing of Yeast, 5.15.1-5.15.15). The fungal spores were harvested from 96-h cultures and their number adjusted to 1×10^6 per ml. The Sabouraud Dextrose medium was dissolved in glass double distilled water and autoclaved at 10 psi for 15 min. 90-μl medium was added into the wells of cell culture plates. The different concentrations of the extract, fractions or the purified compound were prepared in duplicate wells and then the wells were inoculated with 10 μl of spore suspension. The plates were incubated at 37° C. and examined macroscopically after 48 h for the growth of fungal mycelia. The activity was represented as −ve if growth was there and +ve if medium appeared clear with out any growth of fungi.
(§4) The antifungal susceptibility of the fungi to the purified compound was assayed by the microbroth dilution method. The different concentrations of the purified compound ranging from 21.87 to 350 μg/ml were prepared in duplicate wells by twofold dilution method. The test was done as described above.

[4] = system: A. fumigatus; experiment: Microbroth dilution assay; design: key to Activity of the compound against Aspergillus sp. after 48 hrs.: +ve if medium appeared clear with out any growth of fungi; −ve if growth was there
Method: as §1, §3, §4

[5] = system: A. niger; experiment: Microbroth dilution assay; design: key to Activity of the compound against Aspergillus sp. after 48 hrs.: +ve if medium appeared clear with out any growth of fungi; −ve if growth was there
Method: as §1, §3, §4

[6] = system: Aspergillus species; experiment: Spore germination inhibition assay; conditions: 10 hrs incubation
Method: as §1
The modified spore germination inhibition assay was performed as described earlier (Sureder P. and Janaiah C., 1987, Ind. J. Expt. Biol., 25, 233-234). The fungal species were grown on Sabouraud dextrose agar plates at 37° C. for 96 h. […] The conidia were counted and their number in the suspension was adjusted to 1×10^4 per ml. The standard drug Amphotericin B and test samples were initially dissolved in minimal quantity of dimethylsulfoxide (DMSO) and then diluted with Sabouraud dextrose medium. […] The number of germinated and non-germinated spores was counted. The percent spore germination inhibition (PSGI) was calculated using following formula [formula]
Antifungal Activity of Pure Compound by Spore Germination Inhibition Assay The spore germination inhibition assay was performed to evaluate the activity of the compound. […] The number of germinated and non-germinated spores was counted and the percent spore germination inhibition (PSGI) was calculated. […]

CCCCC(=O)OC(C)CC1NCC(C)=C1C (stereo not shown) [PC-1, 2-(3,4-dimethyl-2,5-dihydro-1H-pyrrol-2-yl)-1-methylethyl pentanoate]
MIC by disc diffusion assay [1]: 5 μg/disc
zone of inhibition at 20 µg/disc ([2]; Aspergillus niger, 20.0 μg/disc, 48 hrs, read-out: Diameter of zone of inhibition): 9.4 mm
MIC by disc diffusion assay ([2]; concentration developing zone of inhibition of 6.0-mm diameter): 5 μg/disc
Activity of the compound against Aspergillus sp. after 48 hrs. ([3]; 21.87 μg/ml): −
Activity of the compound against Aspergillus sp. after 48 hrs. ([3]; 43.75 μg/ml): −
MIC ([3]; Aspergillus flavus, no visual growth, 48 h): 87.5 µg/mL (≈ 366 µM)
Activity of the compound against Aspergillus sp. after 48 hrs. ([4]; 21.87 μg/ml): −
Activity of the compound against Aspergillus sp. after 48 hrs. ([4]; 43.75 μg/ml): −
MIC ([4]; Aspergillus fumigatus, no visual growth, 48 h): 87.5 µg/mL (≈ 366 µM)
Activity of the compound against Aspergillus sp. after 48 hrs. ([5]; 21.87 μg/ml): −
Activity of the compound against Aspergillus sp. after 48 hrs. ([5]; 43.75 μg/ml): −
MIC ([5]; Aspergillus niger, no visual growth, 48 h): 87.5 µg/mL (≈ 366 µM)
MIC by percent spore germination inhibition [6]: 87.5 µg/mL (≈ 366 µM)
